Data on 4 molecules can be found in patent US9150571B2, “Crystalline forms of fused amino pyridines as HSP90 inhibitors” (Debiopharm International SA, priority 2011, dated 2015).

As usually defined, the solubility is how much of the substance goes into solution per volume.

Structures are written as SMILES. ≈ marks a conversion by molar mass, not a printed value.

Common to all, as to assay type: physicochemical
A short description of data set [1]: Interconversion experiments in ethyl acetate suspension (thermodynamic stability of forms), XRPD. Particulars: for temperature range in which the form is the most stable polymorph (Form I/II transition): from interconversion experiments at 5, 10, 15, 21 & 60° C. The method, then:
Interconversion experiments were carried out using Forms I, II and III at 5° C., 10° C., 15° C., 21° C. and 60° C. in ethyl acetate. Suspensions of approximately equivalent amounts (about 75 mg) of each form in ethyl acetate (1.2 mL) were prepared and agitated at different temperatures. The slurries were stirred and sampled periodically (200 μL aliquot) after 30 mins and over the period of 10 days or until when near complete or complete conversion had occurred. The sampled aliquot was filtered, air dried and analyzed by XRPD.
In solvent mediated conversions, seeds of all Forms are present and there is no activation energy barrier to interconversion. This technique is used to identify the ‘true’ transition temperature and the thermodynamic relationship between the Forms. In order to determine the order of stability between each individual form interconversion experiments were performed using suspensions of pairs of each form in ethyl acetate at 5, 10 and 15° C. and suspensions of all Forms together at 21° C. and 60° C. The stirred suspensions of Forms I, II and III were sampled after 0.5 hr (t0), after 1, 2 and 3 days (t1-3) and 6 and 10 days if required.

Data set [2] can be described thus: Intrinsic dissolution rate (IDR). Particulars: pH 5.0 USP buffer, 37° C., 50 RPM; Form I from one non capped pellet. The method, then: For intrinsic dissolution studies (IDR) an isocratic HPLC method with a shorter run time (10 mins) was used due to the high number of sample analyses required (Table 2).
Distek 8 mm intrinsic dissolution apparatus was used for the study. The three fixed screws on the surface plate were inserted through the three holes on the die and fastened with the supplied washers and nuts. 100 mg of test material was placed in the die cavity. The punch was inserted into the cavity and compressed, with the aid of a bench top hydraulic press for 30 sec at 1 ton pressure. The surface plate was disconnected from the die to expose a compact pellet of 0.5 cm^2 surface area. The pellets were checked for any breaks and cracks on the surface. Only the pellets with flat even surface with no irregularities were used for the study. The Viton gasket was placed around the threaded shoulder of the die and a polypropylene cap was screwed on to the threads. The assembly was immersed, pellet side up, into the bottom of the dissolution vessel (flat bottom) containing dissolution medium at 37° C. The media is degassed under helium purge for 15 min prior to use.
• Dissolution media: pH 5.0 USP buffer • Vessel volume: 900 mL • Rotation speed: 50 RPM • Temperature: 37° C.±0.5° C. • Sampling time points: 30, 60, 90, 120 and 150 mins • Sample size: 1 mL • Sample analysis: By HPLC (conditions in Table 2 above)
Three samples of Form I, II, III and trihydrate were checked for IDR in USP pH 5.0 buffer. The samples were checked for any changes in their surface after dropping into the dissolution medium. […] The particles relax on contact with water during dissolution, causing capping of the surface. So IDR was calculated for Form I based on drug release from one non capped pellet. […] The samples were collected manually through a cannula fitted with 10 μm inline filters. The samples collected from dissolution run were analyzed by HPLC.
The average of all three runs was used to plot and calculate the IDR of samples, with the exception of Form I. The average dissolution profile for each Form is shown in FIG. 12.
After the dissolution test, the remaining portion of the pressed discs were dried in air and examined by XRPD.

Data set [3] in a line: Equilibrium solubility in buffer, HPLC. How it is done: Approximately 25 mg of test substance was weighed into glass test tubes. The relevant volume of buffer solution (10 mL) was added to each vessel. The tests were performed in duplicate. The vessels were lightly sealed and agitated at 25°C. in a shaking thermostatted water bath protected from light. Sampling was performed after 24 hours and thereafter not less than 20 hours between sample time points. Sampling was performed by filtration of a portion of the test slurry through a 0.2 μm filter and dilution in appropriate media for HPLC analysis.
Equilibrium solubility was determined by HPLC by using:
[formula] where the Standard Purity was taken as 95%.
Buffer pH 7.0 samples were prepared by removing approximately 1 mL of the solution from the appropriate glass test tube and filtering into a HPLC vial using a PTFE 0.2 μm syringe filter. The concentration of the Compound 1 in the filtrate was determined by comparison with data of the standard sample (about 0.25 mg/g).
Buffer pH 5.0 samples were prepared by removing approximately 1 mL of the solution from the appropriate glass test tube and filtering into a HPLC vial using a PTFE 0.2 μm syringe filter. The filtered solution was diluted by a factor of 5 and approximately 1 mL of this solution was added into a HPLC vial for analysis. The concentration of the Compound 1 in the filtrate was determined by comparison with data of the standard sample (about 0.25 mg/g).
At the end of the solubility study, the solids were isolated from the experimental slurries, filtered, dried and analyzed by XRPD in order to determine the physical form.
The solubility of Compound 1 Form I was determined by two different methods. The EP (European Pharmacopoeia) method is an aliquot addition method which gives a rough assessment of kinetic solubility. The equilibrium method requires the suspension of solid for an extended period in the dissolving medium. […] The EP method indicated solubility of Compound 1 Form I to be insoluble in water and be soluble in ethanol at 33-100 mg/ml.
The concentration of the samples was assessed by HPLC.

Data set [4] is described as follows: Dynamic vapour sorption (DVS) hygroscopicity. The method, then:
Dynamic Vapour Sorption (DVS) was performed using a Hiden Analytical Instruments IGAsorp Vapour Sorption Balance. Approximately 15 mg of sample was placed into a wire-mesh vapour sorption balance pan, loaded into the IGAsorp vapour sorption balance and held at 25° C.±0.1° C. The sample was subjected to a step profile from 0 to 90% RH at 10% increments, followed by desorption from […] to 0% RH at 10% increments. The equilibrium criterion was set to 99.5% step completion within a minimum of 60 minutes and a maximum of 10 hours for each increment. The weight change during the sorption cycle was monitored, allowing for the hygroscopic nature of the sample to be determined. The data collection interval was in seconds.
DVS analysis was used to investigate the hygroscopicity of Compound 1 Form I (FIG. 11). […] The overall weight gain up to 95% RH was 0.06% and weight gained up to 80% RH only 0.08%.
After completion of the cycle, the sample was removed from the instrument and no weight change was observed.

A short description of data set [5]: Solubility, EP (European Pharmacopoeia) aliquot addition method. Conditions: 25° C., EP method (kinetic solubility). How it is done: All samples to be tested were passed through number 180 and number 125 sieves to ensure that they were finely powdered prior to testing, i.e. not less than 95% of sample mass passed through a […] sieve and not more than 40% passed through a 38 μm sieve.
The vial containing the test material and chosen solvent was shaken on a vortex mixer for 1 minute. The vial was placed in a water bath maintained at 25° C.±0.5° C. for 15 minutes. If particles were still remaining, the vial was shaken again for 1 minute using the vortex mixer and returned to the water bath for a further 15 minutes.
Approximately 100 mg of the test material was weighed into a vial and 0.1 mL of the chosen solvent was added. This was treated as described in the procedure above. […] After each addition of solvent the contents of the vial were treated as described in the dissolving procedure. […] After the dissolving procedure was complete, the solubility of the material was visually determined. […] Results obtained were reported.
The solubility of Compound 1 Form I was determined by two different methods. The EP (European Pharmacopoeia) method is an aliquot addition method which gives a rough assessment of kinetic solubility. The equilibrium method requires the suspension of solid for an extended period in the dissolving medium. […]

A short description of data set [6]: Critical water activity for trihydrate formation in acetone/water. Conditions: 21° C. How it is done: Experiments to determine the critical water activity level with respect to trihydrate formation were performed in acetone/water. Different % v/v ratios of water in acetone were used for suspensions at 21° C. […] Using the Wilson VLE model, this equates to 0.38-0.49 or 0.35-0.44 using the UNIFAC model. This provides useful information for process chemists and formulators in later development.

Consider `CN(C)c1cc2c(cc1Sc1nc3c(N)nccc3n1CCNCC(C)(C)C)OCO2` [Form II], for which the “thermodynamically most stable form” value is given as “thermodynamically most stable form” in data set [1] (5° C., ethyl acetate suspension of pairs of forms); “thermodynamically most stable form” in data set [1] (10° C., ethyl acetate suspension of pairs of forms); “thermodynamically most stable form” in data set [1] (15° C., ethyl acetate suspension of pairs of forms). Also, the “temperature range in which the form is the most stable polymorph (Form I/II transition)” value in data set [1] was “lower than 18±2 °C”. Besides, in data set [2], the IDR stood at 0.098 mg cm^−2 min^−1.
As to `CN(C)c1cc2c(cc1Sc1nc3c(N)nccc3n1CCNCC(C)(C)C)OCO2` [Compound 1 Form I], the “thermodynamically most stable form” value in data set [1] (21° C., ethyl acetate suspension of Forms I, II and III) was “thermodynamically most stable form”; in data set [1] (60° C., ethyl acetate suspension of Forms I, II and III) it was “thermodynamically most stable form”. Besides, the “temperature range in which the form is the most stable polymorph (Form I/II transition)” value in data set [1] is “above 18±2 °C”. Besides, the “MEAN SOLUBILITY pH 5.1” value in data set [3] (day 1, buffer pH 5.1, 25°C) is reported as 1.101 MG/G; in data set [3] (day 2, buffer pH 5.1, 25°C) it was 0.735 MG/G; in data set [3] (day 3, buffer pH 5.1, 25°C), 0.587 MG/G; in data set [3] (day 4, buffer pH 5.1, 25°C), 0.507 MG/G. In addition, the “MEAN SOLUBILITY pH 7.0” value stood at 0.074 MG/G in data set [3] (day 1, buffer pH 7.0, 25°C); 0.043 MG/G in data set [3] (day 2, buffer pH 7.0, 25°C); 0.031 MG/G in data set [3] (day 3, buffer pH 7.0, 25°C); 0.025 MG/G in data set [3] (day 4, buffer pH 7.0, 25°C). Moreover, in data set [4] (DVS, 25° C., up to 80% RH), the “weight gained up to 80% RH” value came to 0.08%. Besides, the “overall weight gain up to 95% RH” value in data set [4] (DVS, 25° C., up to 95% RH) was 0.06%. Also, the “hygroscopicity classification (European Pharmacopoeia)” value in data set [4] (weight increase at 80% RH (25° C.)) was “non-hygroscopic”. In addition, the IDR in data set [2] was 0.101 mg cm^−2 min^−1. Further, the solubility at 15 min in data set [5] (organic solvent or mixture, ethanol) lay within 33 to 100 mg/mL (≈ 74.6 to 226 mM). In addition, the “solubility in water (EP method)” value in data set [5] (water) is given as “insoluble”.
`CN(C)c1cc2c(cc1Sc1nc3c(N)nccc3n1CCNCC(C)(C)C)OCO2` [Form III] came in with an IDR in data set [2] of 0.266 mg cm^−2 min^−1.
`CN(C)c1cc2c(cc1Sc1nc3c(N)nccc3n1CCNCC(C)(C)C)OCO2` [Trihydrate]: in data set [2], the IDR is 0.184 mg cm^−2 min^−1. Besides, the “critical water activity, UNIFAC model” value in data set [6] (UNIFAC model) is reported as 0.35-0.44. The “critical water activity, Wilson VLE model” value in data set [6] (Wilson VLE model) was 0.38-0.49.
